The text below walks through data of US6337316B1, “Pharmaceutical compositions thereof, and methods of using same” (Applied Research Systems ARS Holding N.V., priority 1997, dated 2002).

Entries after “also recorded” stand apart in the source; their conditions may differ. Bridge positions count the residues as written; N and C are the ends. Ends that are not written are not given here. Peptide text beside a SMILES is read from it.

Data set [1] has as its system lymphocyte proliferation in the human MLR. The data set is classed as cell-based. Particulars: for Human MLR (ability to inhibit lymphocyte proliferation, cpm): peptide 12.5 to 100 μM, assays of 1/24, 1/31, 3/6, 4/17, 5/2, one symbol per assay; for effect on the human MLR in combination with CTLA-4Ig: CTLA-4Ig spiked in at 0.5 μg/ml (FIG. 8). Here is the method: Whole blood from donors was obtained from Interstate Blood Bank, Memphis, Tenn. Blood specimens were handled in a biosafety level 2 containment facility as recommended for potentially infectious blood specimens in the CDC/NIH manual Biosafety in Microbiological and Biomedical Laboratories; 3rd edition, 1993, page 10. Peripheral blood mononuclear cells (PBMC) were separated from red blood cells and granulocytes by ficoll-hypaque purification. Whole peripheral blood was diluted 1:2 in PBS and 30 ml was overlayed onto 15 ml of ficoll-hypaque in 50 ml polypropylene tubes. The tubes were spun at 400×g for 30 min at 25° C. Following centrifugation, the interface between the upper plasma layer and the lower ficoll layer was collected, cells washed in RPMI-1640 2×, and viable counts determined using trypan blue. Cells to be used as responders in the assay were stored on ice until mitomycin C treatment of stimulator cells was completed.
PBMC, isolated as described above, to be used as stimulators in the assay were adjusted to 2-4×10^6 cells/ml in complete medium (RPMI 1640 containing 10% heat-inactivated human AB serum, 2 mM glutamine, 50 μM 2-mercaptoethanol and 100 U/ml penicillin-100 μg/ml streptomycin), and treated with mitomycin C (25 μg/ml) for 30 min in a 37° C. water bath. Following treatment, cells were washed with S volumes of complete medium 3×, and viable counts determine using trypan blue. To set up autologous stimulation controls some responder cells were also treated with mitomycin C as mentioned above.
Purified CTLA-4Ig fusion protein was produced, as described in Steurer et al. 1995, from a NS-1 cell line kindly donated by Dr. T. Strom (Beth Israel Hospital, Boston, Mass.) as a 1 mg/ml solution in sterile PBS. The protein was stored frozen at −80° C. Upon thawing, the aliquot was stored at 4° C. Purified peptides were lyophilized according to known procedures. Peptides were reconstituted in sterile PBS, pH 7.4 at 2 mM concentration, aliquoted in microfuge cubes and stored frozen at −20° C. For the assay, an aliquot of the peptide was thawed and diluted to 200 μM in complete medium.
For the one-way allogeneic mixed lymphocyte response (MLR) assay, responder cells were plated at 10^6 cells/well, and stimulator cells at 5×10^4 cells/well in 96-well round bottom plates. Cells were incubated with serial dilutions of the anti-CD4 Ab Leu 3A (1 μg/ml-0.06 μg/ml) in triplicate, or an isotype-matched control Ab. Cyclosporin A at 1 μg/ml was used as an additional control.
CTLA-4 Ig was serially diluted an.4 tested from 10 μg/ml to 0.15 μg/ml. Peptides were tested either directly or in the presence of a constant spiked-in dose of CTLA-4 Ig at 0.5 μg/ml. The plates were incubated at 37° C. in a humidified 5% CO2 atmosphere for 7 days.
Proliferation of the cells was determined by pulsing the wells with ^3H-Tdr (1 μCi/well) for the last 18 h of the assay. Plates were harvested using a Tomtec -late harvester and the counts incorporated determined using a Wallac microbetaplate plus reader.
A total of 34 peptides were tested for inhibition of lymphocyte proliferation in the human MLR. Each peptide was tested in a MLR at doses ranging from 12.5 to 100 μM. The activity of each peptide was identified by assigning a + and − tone peptide depending on its ability to inhibit lymphocyte proliferation in the MLR (cpms).

The subject of data set [2] is binding of CTLA-4Ig to B7 on Cess B cells. As to the kind of experiment: CTLA-4Ig/B7 binding assay on Cess B cells by FACS. Particulars: FACS; assays of 3/24, 3/25, 4/5, 4/25; one symbol per assay. The procedure: +++ was assigned if the peptide tested gave >50% change in cpm in a dose dependent fashion. In addition to the MLR, these 34 peptides were also evaluated in a CTLA-4Ig/B7 binding assay in which the ability of these peptides to affect the binding of CTLA-4Ig to B7 on Cess B cells was examined by FACS analysis.
As with the MLR, a + or − was assigned to each peptide depending on its ability to effect CTLA-4Ig binding to Cess B cells; where − represents no change in binding, + represents a minor change of <10% in binding, and a ++ represents a change of >20% in binding.

In data set [3] the test system is Jurkat cells. As to the kind of experiment: Toxicity test on growing cell cultures. The data set is classed as cell-based. Particulars: 100 μM AT 199. The procedure:
(§1) To determine if the activity of AT 199 was due to a specific effect on lymphocyte proliferation in the MLR or due to a non-specific inhibition of lymphocyte proliferation in general (i.e., toxicity), the toxicity of AT 199 was tested against THP-1, Jurkat, and resting and activated PBLs.
(§2) AT 199 and its control analogs were assayed for overt toxicity and non-specific inhibition. The peptides were added to growing cultures of THP-1 cells, Jurkat cells and primary peripheral blood lymphocytes (PBLs).

Data set [4] has as its system THP-1 cells. Briefly: Toxicity test on growing cell cultures. Particulars: 100 μM AT 199. The data set is classed as cell-based. Here is the method: as §1, §2
In data set [5] the test system is primary peripheral blood lymphocytes (PBLs). Briefly: Toxicity test on growing cell cultures. The data set is classed as cell-based, human. Particulars: 100 μM AT 199. The procedure:
as §1, §2

Data set [6] relates to PHA activated PBLs. As to the kind of experiment: Mitogen (PHA) stimulation assay of PBL, 3H-Tdr incorporation. The data set is classed as cell-based, human. Particulars: for effect on PHA activation of PBLs / PHA stimulated T cells: in words. The procedure: For these assays, ficoll-hypaque purified PBMC (10^5 cells/well) were incubated in flat-bottom 96-well tissue culture plates with indicated concentrations or phytohemagglutinin (PHA; 5, 2.5, 1.25, 0.5 μg/ml) for 3 days at 37° C. in a humidified 5% CO2/air incubator. Cells were incubated in the presence or absence of various concentrations of CTLA-4 Ig, purified anti-CD80 mAb (1 μg/ml), anti-CD86 mAb (1 μg/ml), and peptides 199 and 201 serially diluted from 100 μM to 12.5 μM for the period of the assay.
Proliferation of the cells was determined by pulsing the wells with ^3H-Tdr (1 μCi/well) for the last 6 h of the assay. Plates were harvested using a Tomtec plate harvester and the counts incorporated determined using a Wallac microbetaplate plus reader.
AT 199 was tested for inhibition of PHA activated PBLs. PHA activation, while not specifically targeted at the CD28 pathway, has some dependence on this pathway depending on the concentration of PHA used to activate lymphocytes. To determine the […] of phytohemagglutinin (PHA) activation on CD28 signaling, CTLA-4Ig was included in each assay.
In order to test for an unanticipated mechanism of inhibition, AT 199 was assayed using PHA-stimulation of PBLs. Phytohemagglutinin (PHA) is a lectin extracted from the red kidney bean and is a mixture of five tetrameric glycoprotein. PHA stimulates T cells in the presence of accessory cells (but not B cells) by cross-linking a variety of critical T cell surface molecules, including CD3, CD2, CD4, CD8 and LFA-1 (Geppert, 1992). The involvement of CD28 in this stimulation is dependent on the degree of crosslinking by PHA. At the appropriate concentration of PHA, the simultaneous engagement of cell surface receptors results in a proliferation response that can bypass the need for specific costimulatory signals such as CD28. This can be monitored by examining CTLA-4Ig inhibition of PHA mitogenesis.

Data set [7] relates to murine MLR splenocyte proliferation. Briefly: One-way murine MLR (C57Bl/6 stimulators, BalB/c responders). It is filed as cell-based, mouse. The procedure:
One-way murine MLRs were set up using the C57Bl/6 mice splenocytes as stimulators and BalB/c splenocytes as responders.
Spleens were excised from mice (Jackson Laboratories, Bar Harbor, Ma.) 6-8 weeks of age. Cells were separated from the capsule using sterile frosted glass slides and washed in cold RPMI 1640 1×. Red blood cells were lysed by treating the spleen cell suspension with cold Tris ammonium chloride buffer (2 ml/spleen) for 3 min on ice. After lysis, the cells were washed 2× in 5 volumes of complete medium (RPMI 1640 containing 10 % heat-inactivated FBS, 2 mM glutamine, 50 μM 2-mercaptoethanol, 100 U/ml penicillin-100 μg/ml strepcomycin, 1 mM sodium pyruvate and 1 mM non-essential amino acids).
Plastic-adherent cells were removed from splenocytes of BalB/c mice by adjusting the cell concentration to 3×10^6 cells/ml in complete medium and incubating the cells for 1.5-2 h at 37° C. in T-75 flasks. Following incubation non-adherent cells were collected by gently washing the flasks and the percent recovery determined (60-70%). Bal b/C responder cells were stored on ice until mitomycin C treatment of stimulator cells was completed.
Following RBC lysis splenocytes of C57Bl/6 mice were adjusted to 2-4×10^6 cells/ml in complete medium and treated with mitomycin C (50 μg/ml) for 30 min at 37° C. in a humidified 5% CO2 in air atmosphere. Following treatment, cells were washed with 5 volumes of complete medium 3×, and viable counts determined using trypan blue.
To set up autologous stimulation controls some responder cells were also treated with mitomycin C as mentioned above.
For the assay, responder and stimulator cells were plated at 10^5 cells/well in 96-well round bottom plates. […]
Appropriate scrambled peptide controls and matrix controls were included in every assay. […] Proliferation of the cells was determined by pulsing the wells with 3H-Tdr (1 μCi/well) For the last 6 h of the assay. Plates were harvested and the counts incorporated determined as described above.

Data set [8] has as its target T1, B7-1 (Homo sapiens, UniProt P33681).
T1 sequence (P33681 35-288): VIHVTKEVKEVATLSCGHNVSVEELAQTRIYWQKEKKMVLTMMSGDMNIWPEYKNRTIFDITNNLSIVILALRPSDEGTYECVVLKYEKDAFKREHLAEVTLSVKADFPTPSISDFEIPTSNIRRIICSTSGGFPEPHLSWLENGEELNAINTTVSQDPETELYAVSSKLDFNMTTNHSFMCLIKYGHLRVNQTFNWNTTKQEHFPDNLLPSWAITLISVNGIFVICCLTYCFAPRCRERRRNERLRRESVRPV
Particulars: CTLA-4Ig vs CD28Ig, higher affinity; cited from earlier work.

Data set [9] relates to Th1-type cytokines and antigen specific T cells. Particulars: delayed administration of the protein; cited from earlier work.
Where [10] appears, read: peptides tested 100 μM to 1.56 μM (FIG. 9).

Broadly, the IC50 is the concentration that gives 50% inhibition. For `CSCC[C@@H]1NC(=O)[C@H](CC(C)C)NC(=O)[C@@H](NC(=O)[C@H](CCCCN)NC(=O)[C@@H](N)CCCNC(=N)N)CSSC[C@@H](C(=O)N[C@@H](Cc2c[nH]cn2)C(=O)N[C@@H](Cc2c[nH]cn2)C(N)=O)NC(=O)[C@H](Cc2ccc(O)cc2)NC(=O)[C@H](Cc2ccc(O)cc2)NC(=O)[C@@H]2CCCN2C(=O)[C@@H]2CCCN2C(=O)[C@@H]2CCCN2C(=O)[C@H](Cc2ccc(O)cc2)NC1=O` [AT 199.1, RKCLMYPPPYYCHH] (HELM PEPTIDE1{R.K.C.L.M.Y.P.P.P.Y.Y.C.H.H.[am]}$PEPTIDE1,PEPTIDE1,3:R3-12:R3$$$V2.0; N-terminus assumed), in data set [1], the IC50 is 50 to 100 µM and the “Human MLR (ability to inhibit lymphocyte proliferation, cpm)” value is reported as “+, +, +”. In addition, the “human MLR assays in which the peptide was active” value in data set [1] (total of 6 human MLR assays) is 5 out of 6. Also, the “Binding Assay (effect on CTLA-4Ig binding to Cess B cells)” value in [2] is “+, +, +”. Further, the “inhibition / effect on growth of Jurkat cells” value in data set [3] was “no inhibition; also recorded: No effect”. Besides, in data set [4], the “inhibition / effect on growth of THP-1 cells” value is “no inhibition; also recorded: No effect”. Moreover, the “inhibition / effect on growth of resting primary PBLs” value in [5] is reported as “no inhibition; also recorded: No effect”. The “effect on PHA activation of PBLs / PHA stimulated T cells” value in data set [6] is given as “only a minor effect; also recorded: did not inhibit”.
As to “AT 199.3: resynthesis of AT 199.1 using the original protocols without change (RKCLMYPPPYYCHH; disulfide 3-12 (inferred); not fully specified (C-terminus); also: disulfide cyclisation only partial, mixed cyclic and linear population)”, the “inhibition of the human MLR” value in data set [1] (100 μM, one MLR) was 30%. In addition, the “effect on the human MLR in combination with CTLA-4Ig” value in data set [1] was “inhibited the MLR over and above CTLA-4Ig by itself”. Further, the “inhibition of the murine MLR” value in data set [7] (setting [10]) turned out to be 85%.
As to “CTLA-4Ig: Purified CTLA-4Ig fusion protein (murine) produced from a NS-1 cell line as in Steurer et al. 1995”, the “inhibition of the murine MLR” value in [7] (10 μg/ml CTLA-4Ig, stated as similar to AT 199.3) is recorded as about 85%. In addition, in data set [6] (10 μg/ml CTLA-4Ig, PHA 2.5 and 5 μg/ml (FIG. 11)), the “inhibition of PHA activation” value was 40-50%. In [6], the “effect on PHA activation of PBLs / PHA stimulated T cells” value was “inhibited PHA activation slightly”. The “affinity for B7-1 relative to CD28Ig” value in data set [8] is 20-100 fold. Also, in [9], the “blunted expansion of antigen specific T cells” value is listed as 50% and the “reduction in Th1-type cytokines” value is reported as 80-90%.
For the compound “RKCLGYPPPYYCHH (not fully specified (bridges); cysteine pairing not given here) [AT 201.1]”, in data set [1], the “effect on the human MLR in combination with CTLA-4Ig” value is recorded as “no effect” and the “Human MLR (ability to inhibit lymphocyte proliferation, cpm)” value was “−, −, −”. The “inhibition of the MLR, in words” value in [1] (control and linear peptides compared with AT 199) is recorded as “did not inhibit any of the MLRs as much as AT 199”. Moreover, in data set [2], the “Binding Assay (effect on CTLA-4Ig binding to Cess B cells)” value is listed as “−, −, −”. Also, the “inhibition of the murine MLR” value in [7] (setting [10]) stood at 25%.
